Test systems include NCI-H460 lung; OVCAR-8 ovarian; HOP-62 NSCLC.
What all share (experiment): DTP human tumour cell line panel, 48 h

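Values below derive from 48-hour exposures of cells grown in 96-well plates, with endpoints linearly interpolated between the two concentrations bracketing the appropriate inhibition level. GI50 is the concentration that inhibits growth by half. TGI is the concentration that stops growth completely.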

Data on one compound can be found in PubChem BioAssay (NCI).

Take `C=C(C)[C@@H]1CC[C@]2(C(=O)OCCOCCOCC[P+](c3ccccc3)(c3ccccc3)c3ccccc3)CC[C@]3(C)[C@H](CC[C@@H]4[C@@]5(C)CC[C@H](C)C(C)(C)[C@@H]5CC[C@]43C)[C@@H]12`: the GI50 in the assay on NCI-H460 lung is 38.3 nM; in the assay with OVCAR-8 ovarian, 43.1 nM; in the assay on HOP-62 NSCLC, 38.4 nM. Further, the TGI was over 100000 nM in the assay on NCI-H460 lung, over 100000 nM in the assay with OVCAR-8 ovarian and 614 nM in the assay on HOP-62 NSCLC.

One may read the GI50 as the concentration that inhibits growth by half. In general, TGI refers to the concentration at which net growth stops. Read a low TGI as greater sensitivity of the cells.
